Data reported in publication PMC8304462, “Isolation, Structural Characterization and Antidiabetic Activity of New Diketopiperazine Alkaloids from Mangrove Endophytic Fungus Aspergillus sp. 16-5c” (Marine Drugs, 2021).

Tests used:
PTP1B = biological target: T1, PTP1B (Homo sapiens, UniProt P18031); experiment: PTP1B inhibitory activity (p-NPP hydrolysis); format: biochemical; settings: screening concentration 100 μg/mL
T1 sequence (P18031 1-435): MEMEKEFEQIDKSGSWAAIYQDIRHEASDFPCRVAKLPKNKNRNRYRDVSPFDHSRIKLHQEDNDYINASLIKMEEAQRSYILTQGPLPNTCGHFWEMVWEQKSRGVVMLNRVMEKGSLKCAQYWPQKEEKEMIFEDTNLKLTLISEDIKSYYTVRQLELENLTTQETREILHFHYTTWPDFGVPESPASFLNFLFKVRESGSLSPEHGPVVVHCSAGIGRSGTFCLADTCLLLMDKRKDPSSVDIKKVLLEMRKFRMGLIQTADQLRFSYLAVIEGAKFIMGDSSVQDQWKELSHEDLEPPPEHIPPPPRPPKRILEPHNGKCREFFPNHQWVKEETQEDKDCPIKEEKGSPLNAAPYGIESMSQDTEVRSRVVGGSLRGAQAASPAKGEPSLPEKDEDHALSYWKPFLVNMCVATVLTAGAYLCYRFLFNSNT
Protocol: PTP1B inhibitory activity was determined by measuring the enzymatic hydrolysis rate of p-nitrophenyl phosphate (p-NPP) as reported in the study. This assay was performed at 37 °C with a final volume of 100 μL, using a Tris-HCl buffer (25 mM Tris-HCl, 1 mM EDTA, 1 mM DTT, pH 7.5). […] After 30 min, the reaction ended by adding 50 μL 2.5 M NaOH solution.

α-glucosidase = α-glucosidase inhibition assay (p-NPG, 96-well microplate); format: biochemical; settings: 37 °C, pH 6.86, substrate p-NPG
Protocol: The α-glucosidase inhibition assay was performed in a 96-well microplate reader method as described in a previous report. The α-glucosidase assay was performed at 37 °C with a final volume of 200 μL. […] 20 μL substrate p-nitrophenyl-α-D-glucopyranoside (p-NPG) was added to each well to start the reaction. The reaction was incubated at 37 °C for 15 min and stopped by the addition of 50 μL 0.4 M Na2CO3.

PTP1B (Inhibition Ratio/%) (PTP1B)	IC50 (α-glucosidase)	Compound
<10%	131 µM	C=CC(C)(C)c1[nH]c2ccccc2c1C=C1NC(=O)C(CCC(=O)O)NC1=O (centres unmarked) [Compound 2, aspergiamide B]
<10%	83.9 µM	C=CC(C)(C)c1[nH]c2ccccc2c1C=C1NC(=O)C2CC(O)CN2C1=O (centres unmarked) [Compound 3, aspergiamide C]
<10%	144 µM	C=CC(C)(C)c1[nH]c2ccccc2c1C(O)C1NC(=O)C2CCCN2C1=O (centres unmarked) [Compound 4, aspergiamide D]
<10%	267 µM	O=C1NC(O)c2nc3ccccc3c(=O)n2C1Cc1ccc(O)cc1 (centres unmarked) [Compound 6, aspergiamide F]
<10%	37.5 µM	CC(C)=CCn1cc(CC2NC(=O)C3CCCN3C2=O)c2ccccc21 [Compound 11, N-Prenyl-cyclo-L-tryptophyl-L-proline]
<10%	480 µM	C=CC(C)(C)c1[nH]c2ccccc2c1CC1NC(=O)C2CCCN2C1=O (stereo not drawn) [Compound 13, epi-deoxybrevianamide E]
<10%	353 µM	O=C1N[C@@H](Cc2c[nH]c3ccccc23)C(=O)N[C@H]1Cc1ccccc1 [Compound 14, cyclo-(tryptophyl-phenylalanyl)]
<10%	67.8 µM	O=C1N[C@@H](O)c2nc3ccccc3c(=O)n2[C@H]1Cc1ccccc1 [Compound 15, brevianamide M]
<10%	363 µM	O=C1NC(=O)[C@H](Cc2ccccc2)n2c1nc1ccccc1c2=O [Compound 16, brevianamide N]

More lines, now with the values behind:

Compound	PTP1B (Inhibition Ratio/%) (PTP1B)	IC50 (α-glucosidase)
C=CC(C)(C)c1[nH]c2ccccc2c1C=C1NC(=O)C(CCCO)NC1=O (centres unmarked) [Compound 1, aspergiamide A]	29%	18.2 µM
C=CC(C)(C)c1[nH]c2ccccc2c1C(OC)C1NC(=O)C2CCCN2C1=O (centres unmarked) [Compound 5, aspergiamide E]	<10%	1090 µM
C=CC(C)(C)c1[nH]c2ccccc2c1/C=C1\NC(=O)C2(O)CCCN2C1=O (centres unmarked) [Compound 7, brevianamide Q]	<10%	198 µM
C=CC(C)(C)c1[nH]c2ccccc2c1/C=C1\NC(=O)C2(OC)CCCN2C1=O (centres unmarked) [Compound 8, brevianamide R]	<10%	364 µM
C=CC(C)(C)c1[nH]c2ccccc2c1/C=c1\[nH]c(=O)c2n(c1=O)CCC=2 [Compound 9, brevianamide K]	<10%	7.6 µM
C=CC(C)(C)c1[nH]c2ccccc2c1/C=C1\NC(=O)C2CCCN2C1=O (centres unmarked) [Compound 10, brevianamide W]	<10%	40.7 µM
O=C1N[C@@H](Cc2c[nH]c3ccccc23)C(=O)N2CCC[C@@H]12 [Compound 12, brevianamide F]	<10%	1090 µM
